Source: patent US10375962B2, “Heterocycle derivatives as pesticides” (BAYER CROPSCIENCE AKTIENGESELLSCHAFT, priority 2016, dated 2019)

Columns and labels:
[1] = test system: L1 larvae of the Australian sheep blowfly (Lucilia cuprina); test: Lucilia cuprina test; assay type: in vivo; details: application rate 100 ppm; after 2 days
Procedure: (§1) Solvent: dimethyl sulphoxide
To produce a suitable active compound formulation, 10 mg of active compound are mixed with 0.5 ml of dimethyl sulphoxide, and the concentrate is diluted with water to the desired concentration.
About 20 L1 larvae of the Australian sheep blowfly (Lucilia cuprina) are transferred into a test vessel containing minced horsemeat and the active compound formulation of the desired concentration.
After 2 days, the kill in % is determined. 100% means that all the larvae have been killed; 0% means that no larvae have been killed.

[2] = log P by HPLC on a reversed-phase column (C 18), EEC Directive 79/831 Annex V.A8; assay type: physicochemical; details: for LOGP_HCOOH (log P (HCOOH)): pH 2.7; for LOGP_NEUTRAL (log P (neutral)): pH 7.8
Text: Called log P (HCOOH) in the table.
Called log P (neutral) in the table.

[3] = test system: caterpillars of the armyworm (Spodoptera frugiperda); test: Spodoptera frugiperda - spray test; assay type: in vivo; details: maize leaf discs, after 7 days
Procedure: Solvent: 78.0 parts by weight of acetone • • 1.5 parts by weight of dimethylformamide Emulsifier: alkylaryl polyglycol ether […] To produce further test concentrations, the formulation is diluted with emulsifier-containing water. Leaf discs of maize (Zea mays) are sprayed with an active compound preparation of the desired concentration and, after drying, populated with caterpillars of the armyworm (Spodoptera frugiperda).

[4] = test system: larvae of the mustard beetle (Phaedon cochleariae); test: Phaedon cochleariae - spray test; assay type: in vivo; details: after 7 days
Method in brief: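 Chinese cabbage leaf discs sprayed with compound in acetone/DMF with emulsifier-containing water, dried, then infested with mustard beetle larvae. Efficacy (%) read after 7 days; 100% = all larvae killed, 0% = none killed.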

[5] = test system: southern root-knot nematode (Meloidogyne incognita); test: Meloidogyne incognita test; assay type: in vivo; details: application rate 20 ppm; lettuce; after 14 days
Procedure: Solvent: 125.0 parts by weight of acetone
To produce a suitable preparation of active compound, 1 part by weight of active compound is mixed with the stated amount of solvent and the concentrate is diluted with water to the desired concentration.
Vessels are filled with sand, active compound solution, an […] suspension of the southern root-knot nematode (Meloidogyne incognita) and lettuce seeds. The lettuce seeds germinate and the plants develop. The galls develop on the roots.
After 14 days, the nematicidal efficacy in % is determined by the formation of galls. 100% means that no galls were found; 0% means that the number of galls on the treated plants corresponds to the untreated control.

[6] = test system: unfed adult cat fleas (Ctenocephalides felis); test: Ctenocephalides felis - oral test; assay type: in vivo; details: application rate 100 ppm in citrated cattle blood; after 2 days
Procedure: as §1
For the purpose of production of a suitable active compound formulation, 10 mg of active compound are mixed with 0.5 ml of dimethyl sulphoxide. Dilution with citrated cattle blood gives the desired concentration.
About 20 unfed adult cat fleas (Ctenocephalides felis) are placed into a chamber which is closed at the top and bottom with gauze. A metal cylinder whose bottom end is closed with parafilm is placed onto the chamber. The cylinder contains the blood/active compound formulation, which can be imbibed by the fleas through the parafilm membrane.
After 2 days, the kill in % is determined. 100% means that all of the fleas have been killed; 0% means that none of the fleas have been killed.

SMILES | efficacy (kill) [1] [%] | LOGP_HCOOH (log P (HCOOH)) [2] | LOGP_NEUTRAL (log P (neutral)) [2] | efficacy ([3]; application rate 500 g/ha) [%] | efficacy ([4]; application rate 100 g/ha) [%] | efficacy ([4]; application rate 500 g/ha) [%] | nematicidal efficacy (formation of galls) [5] [%] | efficacy (kill) [6] [%] | efficacy ([3]; application rate 100 g/ha) [%]
CCS(=O)(=O)c1ccc(-n2ccc3ncc(Cl)cc32)nc1-c1nc2cc(C(F)(F)F)ncc2n1C [Example I-28] | 100 | 3.13 | 3.05 | 100 | 100 | 100 | 90 | 80 | 
CCS(=O)(=O)c1ccc(-n2ccc3cc(Cl)cnc32)nc1-c1nc2cc(C(F)(F)F)ncc2n1C [Example I-27] |  | 4.41 | 4.39 | 100 | 100 | 100 | 100 |  | 100
CCS(=O)(=O)c1ccc(-n2nc3cccc(Br)n3c2=O)nc1-c1nc2cc(C(F)(F)F)ncc2n1C [Example I-36] |  | 2.70 | 2.72 |  |  |  | 100 |  | 
